According to patent US7834173B2, “Esters of hyaluronic acid with rhein, process for their preparation and compositions comprising the same” (Laboratoire Medidom S.A., priority 2004, dated 2010):

Assay: Viscosity / syringeability of 1% w/v solutions (VISCOMATE VM-10A)
Type: physicochemical
Conditions: 1% w/v in phosphate-buffered saline solution pH 7.4, 20±0.2° C., no stirring
Description: The syringeability of the HA-Re compound of the invention was analysed in comparison to that of hyaluronic acid both with a high and a low molecular weight.
In particular, the following three samples were prepared: • a) a 1% w/v solution of high molecular weight hyaluronic acid (average molecular weight approximately 1'200'000) in phosphate-buffered saline solution, pH 7.4 • b) a 1% w/v solution of low molecular weight hyaluronic acid (average molecular weight approximately 600'000) in phosphate-buffered saline solution, pH 7.4 • c) a 1% w/v solution of the HA-Re compound of the invention in phosphate-buffered saline solution, pH 7.4.
The viscosity of the samples was then measured using a VISCOMATE MODEL VM-10A (glass vial: 3 ml; in the absence of stirring conditions; temperature 20±0.2° C.), with the following values being obtained: • a) η=78.4 mPa·s • b) η=64.8 mPa·s • c) η=47.9 mPa·s

## low molecular weight hyaluronic acid
  viscosity η: 64.8 mPa·s
